Results: article PMC2978097, “Inhibiting α-Synuclein Oligomerization by Stable Cell-Penetrating β-Synuclein Fragments Recovers Phenotype of Parkinson's Disease Model Flies” (PLoS ONE, 2010)
Where a SMILES comes first, the peptide text is derived from it. Where no end group is shown, it is not given here. [ ]: non-standard residue; d: D form.

How the values were obtained:
PC12 cells = experiment: Toxicity towards cultured PC12 cells; format: cell-based; conditions: concentrations up to 1 mM in the growing medium, twenty four hours; data not shown
Description: Our best inhibitor candidate was the β-syn 36 peptide which inhibited both the soluble and insoluble fibrillar aggregates of α-syn.

[1] = In vitro peptide stability in mouse brain homogenate; format: in vitro ADME; conditions: 20% peptide solution (1 mM in Tris pH 7.6) and 80% of 10% ICR mouse brain homogenate (0.5% Triton X-100), 37°C, two hours; C18 HPLC, UV 280 nm peak area vs sample in Tris buffer; Figure 5
Protocol: Peptides were dissolved to give a 1 mM solution in […] (pH 7.6). 120 µl of the peptide solution was diluted into a 10% freshly-made homogenate of mouse brain excluding the cerebellum (in 1× Tris buffer and 0.5% Triton X-100). A mixture containing 20% peptide solution and 80% mouse brain homogenate was incubated at 37°C with delicate shaking for two hours. The enzyme reaction was stopped by adding 0.1 M HCl solution, followed by denaturation of the protein using methanol and incubation at 20°C for one hour. The precipitated proteins were centrifuged at 29,000×g for 20 minutes at 4°C and the supernatant containing the peptide was concentrated under vacuum and separated using a C18 HPLC column. The area of the peak (UV absorbance at 280 nm) corresponding to the intact peptide was compared with an equivalent sample incubated in […].
Figure 5 Serum stability of β-syn 36 peptides. Brain extract of wild type ICR white mouse was incubated with the peptides β-syn 36 and retro-inverso β-syn 36 for two hours and loaded on a C18 column for serum stability analysis. (A) Spectra of the β-syn 36 peptide (blue) and β-syn 36 peptide with brain extract (red). […] (C) Quantification of the area under the peak. The area of the peptide in time ‘0’ was determined as 100%. […]

α-syn monomers = molecular target: T1, α-syn monomers (Homo sapiens, UniProt P37840); experiment: Fluorescence anisotropy titration with α-syn monomers; format: binding; conditions: fluorescent anisotropy, increasing amounts of α-syn monomers titrated into the peptide solution; Figure S1; read-out: affinity constant (Kd) towards α-syn monomers
T1 construct: made in house; host or cells: E. coli BL21 (pT7-7)
Protocol: To evaluate the binding of the peptides to α-syn, increasing amounts of α-syn monomers were titrated into a solution of the modified β-syn 36 peptide and anisotropy was determined (Figure S1). The affinity constant was determined to be ∼1 µM.
Supplementary file pone.0013863.s001.tif: Figure S1 The affinity of the modified β-syn 36 containing tryptophan instead of tyrosine towardsα-syn monomers was examined using fluorescent anisotropy. Kd = 1 µM. (0.02 MB TIF) Click here for additional data file.

**Q.** For GVLYVGSKTR [β-syn 36], which “toxicity towards cultured cells (PC12)” value (PC12 cells) is on record?
**A.** no toxicity

**Q.** Which “stability in mouse brain homogenate (called serum stability)” value [1] does the source give for CC(C)C[C@@H](NC(=O)[C@@H](Cc1ccc(O)cc1)NC(=O)[C@H](NC(=O)CNC(=O)[C@@H](CO)NC(=O)[C@@H](CCCCN)NC(=O)[C@H](NC(=O)[C@H](N)CCCNC(=N)N)[C@H](C)O)C(C)C)C(=O)N[C@@H](C(=O)NCC(=O)O)C(C)C [retro-inverso β-syn 36] (H-[dR][dT][dK][dS]G[dV][dY][dL][dV]G-OH) here?
**A.** more stable than the unmodified β-syn 36

**Q.** With CC(C)C[C@@H](NC(=O)[C@H](NC(=O)CN)C(C)C)C(=O)N[C@H](Cc1c[nH]c2ccccc12)C(=O)N[C@@H](C(=O)NCC(=O)N[C@H](CO)C(=O)N[C@H](CCCCN)C(=O)N[C@@H](C(=O)N[C@H](CCCNC(=N)N)C(=O)O)[C@H](C)O)C(C)C [Y39W β-syn 36D] (H-G[dV][dL][dW][dV]G[dS][dK][dT][dR]-OH) as the molecule, how does the Kd (α-syn monomers) read?
**A.** 1000 nM
